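Compound exposure: 48 hours, 5 concentrations, 96-well plates. GI50: concentration for 50% inhibition of growth.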 Active and inactive are the calls of the source. Cut-off read from the data, not from the text of the source: active = GI50 up to about 1.1 µM and inactive = higher.
Key:
Assay in all cases: DTP human tumour cell line panel, 48 h
786-0 = test system: 786-0
A549 = test system: A549
ACHN = test system: ACHN
BT-549 = test system: BT-549
CAKI-1 = test system: CAKI-1
CCRF-CEM = test system: CCRF-CEM
COLO 205 = test system: COLO 205
DU-145 = test system: DU-145
EKVX = test system: EKVX
HCC 2998 = test system: HCC 2998
HCT-116 = test system: HCT-116
HCT-15 = test system: HCT-15
HL-60 = test system: HL-60
HOP-62 = test system: HOP-62
HT-29 = test system: HT-29
Hs-578T = test system: Hs-578T
IGROV-1 = test system: IGROV-1
K562 = test system: K562
KM12 = test system: KM12
LOX IMVI = test system: LOX IMVI
M14 = test system: M14
MCF7 = test system: MCF7
MDA-MB-231 = test system: MDA-MB-231
MDA-N = test system: MDA-N
MOLT-4 = test system: MOLT-4
Malme-3M = test system: Malme-3M
NCI-H226 = test system: NCI-H226
NCI-H23 = test system: NCI-H23
NCI-H460 = test system: NCI-H460
NCI-H522 = test system: NCI-H522
NCI/ADR-RES = test system: NCI/ADR-RES
OVCAR-4 = test system: OVCAR-4
OVCAR-5 = test system: OVCAR-5
OVCAR-8 = test system: OVCAR-8
PC-3 = test system: PC-3
RXF 393 = test system: RXF 393
SF-268 = test system: SF-268
SF-295 = test system: SF-295
SF-539 = test system: SF-539
SK-MEL-28 = test system: SK-MEL-28
SK-MEL-2 = test system: SK-MEL-2
SK-MEL-5 = test system: SK-MEL-5
SK-OV-3 = test system: SK-OV-3
SN12C = test system: SN12C
SNB-19 = test system: SNB-19
SNB-75 = test system: SNB-75
SR = test system: SR
SW-620 = test system: SW-620
T47D = test system: T47D
TK-10 = test system: TK-10
U-251 = test system: U-251
UACC-257 = test system: UACC-257
UACC-62 = test system: UACC-62
UO-31 = test system: UO-31
A498 = test system: A498
OVCAR-3 = test system: OVCAR-3

SMILES: O=C1CCCC2C(O)CCC[C@H]12 (stereo partly specified)
- GI50 (786-0): > 100 µM (inactive)
- GI50 (A549): > 100 µM (inactive)
- GI50 (ACHN): > 100 µM (inactive)
- GI50 (BT-549): > 100 µM (inactive)
- GI50 (CAKI-1): > 100 µM (inactive)
- GI50 (CCRF-CEM): > 100 µM (inactive)
- GI50 (COLO 205): > 100 µM (inactive)
- GI50 (DU-145): > 100 µM (inactive)
- GI50 (EKVX): > 100 µM (inactive)
- GI50 (HCC 2998): > 100 µM (inactive)
- GI50 (HCT-116): > 100 µM (inactive)
- GI50 (HCT-15): > 100 µM
- GI50 (HL-60): > 100 µM (inactive)
- GI50 (HOP-62): > 100 µM (inactive)
- GI50 (HT-29): > 100 µM (inactive)
- GI50 (Hs-578T): > 100 µM (inactive)
- GI50 (IGROV-1): > 100 µM (inactive)
- GI50 (K562): > 100 µM (inactive)
- GI50 (KM12): > 100 µM (inactive)
- GI50 (LOX IMVI): > 100 µM (inactive)
- GI50 (M14): > 100 µM (inactive)
- GI50 (MCF7): > 100 µM (inactive)
- GI50 (MDA-MB-231): > 100 µM (inactive)
- GI50 (MDA-N): > 100 µM (inactive)
- GI50 (MOLT-4): > 100 µM (inactive)
- GI50 (Malme-3M): > 100 µM (inactive)
- GI50 (NCI-H226): > 100 µM (inactive)
- GI50 (NCI-H23): > 100 µM (inactive)
- GI50 (NCI-H460): > 100 µM (inactive)
- GI50 (NCI-H522): > 100 µM (inactive)
- GI50 (NCI/ADR-RES): > 100 µM (inactive)
- GI50 (OVCAR-4): > 100 µM (inactive)
- GI50 (OVCAR-5): > 100 µM (inactive)
- GI50 (OVCAR-8): > 100 µM (inactive)
- GI50 (PC-3): > 100 µM (inactive)
- GI50 (RXF 393): 11.4 µM (inactive)
- GI50 (SF-268): > 100 µM (inactive)
- GI50 (SF-295): > 100 µM (inactive)
- GI50 (SF-539): > 100 µM (inactive)
- GI50 (SK-MEL-28): > 100 µM (inactive)
- GI50 (SK-MEL-2): > 100 µM (inactive)
- GI50 (SK-MEL-5): > 100 µM (inactive)
- GI50 (SK-OV-3): > 100 µM (inactive)
- GI50 (SN12C): > 100 µM (inactive)
- GI50 (SNB-19): > 100 µM (inactive)
- GI50 (SNB-75): > 100 µM (inactive)
- GI50 (SR): > 100 µM (inactive)
- GI50 (SW-620): > 100 µM (inactive)
- GI50 (T47D): > 100 µM (inactive)
- GI50 (TK-10): > 100 µM (inactive)
- GI50 (U-251): > 100 µM (inactive)
- GI50 (UACC-257): > 100 µM (inactive)
- GI50 (UACC-62): > 100 µM (inactive)
- GI50 (UO-31): 51.1 µM (inactive)

SMILES: C[C@H](CS)C(=O)N1c2ccccc2C[C@H]1C(=O)O
- GI50 (786-0): > 100 µM (inactive)
- GI50 (A498): > 100 µM (inactive)
- GI50 (A549): > 100 µM (inactive)
- GI50 (ACHN): > 100 µM (inactive)
- GI50 (BT-549): > 100 µM (inactive)
- GI50 (CAKI-1): > 100 µM (inactive)
- GI50 (CCRF-CEM): > 100 µM (inactive)
- GI50 (COLO 205): > 100 µM (inactive)
- GI50 (DU-145): > 100 µM (inactive)
- GI50 (EKVX): > 100 µM (inactive)
- GI50 (HCC 2998): 37.5 µM (inactive)
- GI50 (HCT-116): > 100 µM (inactive)
- GI50 (HCT-15): > 100 µM
- GI50 (HL-60): > 100 µM (inactive)
- GI50 (HOP-62): > 100 µM (inactive)
- GI50 (HT-29): 97.1 µM (inactive)
- GI50 (Hs-578T): > 100 µM (inactive)
- GI50 (IGROV-1): > 100 µM (inactive)
- GI50 (K562): > 100 µM (inactive)
- GI50 (KM12): > 100 µM (inactive)
- GI50 (MCF7): > 100 µM (inactive)
- GI50 (MDA-MB-231): > 100 µM (inactive)
- GI50 (MDA-N): > 100 µM (inactive)
- GI50 (MOLT-4): > 100 µM (inactive)
- GI50 (NCI-H226): > 100 µM (inactive)
- GI50 (NCI-H23): > 100 µM (inactive)
- GI50 (NCI-H460): > 100 µM (inactive)
- GI50 (NCI-H522): > 100 µM (inactive)
- GI50 (NCI/ADR-RES): > 100 µM (inactive)
- GI50 (OVCAR-3): > 100 µM (inactive)
- GI50 (OVCAR-4): > 100 µM (inactive)
- GI50 (OVCAR-5): > 100 µM (inactive)
- GI50 (OVCAR-8): > 100 µM (inactive)
- GI50 (PC-3): > 100 µM (inactive)
- GI50 (SF-268): > 100 µM (inactive)
- GI50 (SF-295): > 100 µM (inactive)
- GI50 (SF-539): > 100 µM (inactive)
- GI50 (SK-MEL-28): > 100 µM (inactive)
- GI50 (SK-MEL-2): > 100 µM (inactive)
- GI50 (SK-MEL-5): > 100 µM (inactive)
- GI50 (SK-OV-3): > 100 µM (inactive)
- GI50 (SN12C): > 100 µM (inactive)
- GI50 (SNB-19): > 100 µM (inactive)
- GI50 (SNB-75): > 100 µM (inactive)
- GI50 (SR): > 100 µM (inactive)
- GI50 (SW-620): > 100 µM (inactive)
- GI50 (T47D): 56 µM (inactive)
- GI50 (TK-10): > 100 µM (inactive)
- GI50 (U-251): > 100 µM (inactive)
- GI50 (UACC-257): > 100 µM (inactive)
- GI50 (UACC-62): > 100 µM (inactive)
- GI50 (UO-31): > 100 µM (inactive)

Source: ChEMBL document CHEMBL1201862, “PubChem BioAssay data set” (2004)
